Measurements published in patent publication US12187782B2, “PDL1 peptides for use in cancer vaccines” (IO BIOTECH APS, priority 2016, dated 2025).
No end group written: not given here.

Columns and labels:
[1] = system: CD8 T-cells specific for the minimal epitope PDL111; assay: ELISPOT with PDL111-specific CD8 T cells; format: cell-based, human
Text: (§1) The ELISPOT technique enabled screening a high number of peptide antigens for T-cell recognition, despite the availability of relatively few T-cells. We used the ELISPOT assay to quantify peptide-specific, effector cells that secreted IFN-γ, as described in Example 1. We performed the assays according to the guidelines provided by the cancer immunotherapy immunoguiding program (CIP; cimt.eu/cimt/files/dl/cip_guidelines.pdf). To measure T-cell reactivity, nitrocellulose-bottomed 96-well plates (MultiScreen MSIPN4W; Millipore) were coated overnight with the relevant antibodies. The wells were washed and blocked with X-vivo medium for 2 h. The Tumor Infiltrating Lymphoctyes (TILs) were added at different cell concentrations in triplicate wells, with PD-L1 peptides or with control peptide, and incubated overnight. The following day, the wells were washed, and the relevant biotinylated secondary antibody (Mabtech) was added, followed by the avidin-enzyme conjugate (AP-Avidin; Calbiochem/Invitrogen Life Technologies); finally, we added the enzyme substrate, NBT/BCIP (Invitrogen Life Technologies) for visualization. The spots on the developed ELISPOT plates were analyzed on a CTL ImmunoSpot S6 Ultimate-V analyzer with Immunospot software, v5.1.
[…] We analysed the reactivity towards PDL111, PDL1242-264 ([…]— PDLong2, SEQ ID NO: 91), 10104.1 (—OH) and 10104.1 (NH). […]

[2] = system: PBMCs from malignant melanoma patients; assay: Co-stimulation assay: PBMCs stimulated with DCvacc plus peptide, read by intracellular TNFα/IFNγ staining; format: cell-based, human; conditions: for CD4+ T cell reactivity toward DCvacc increased by co-stimulation (donors) / CD8+ T cell reactivity toward DCvacc increased by co-stimulation (donors): eight donors, vs control peptide
Procedure: PBMCs from malignant melanoma patients were stimulated with autologous DCvacc with ratio 1:10 DCvacc:PBMCs. […] Second stimulation with DCvacc was performed on day 7 and followed by peptide co-stimulation on day […] (120 U/mL) was added a day after each peptide co-stimulations. A week after second peptide co-stimulation the cultures were analyzed for DCvacc response using intracellular cytokine staining.
For detection of cell subpopulations producing cytokines (IFN-γ and TNF-α), PBMCs that were stimulated with DCvacc and co-stimulated with peptides for two weeks, were stimulated with DCvacc (ratio 1:10 DCvacc:PBMCs) for 5 hours at 37° C. with 5% CO2. GolgiPlug (BD) was added at a dilution of 1:200 after the first hour of incubation. After 4 additional hours cells were washed twice with PBS, stained fluorochrome conjugated antibodies for surface markers (CD3-Amcyan, CD4-PerCP and CD8-Pacific Blue, all from BD). Cells were washed one additional time and thereafter were fixed and permeabilized with Fixation/Permeabilization and Permeabilization Buffer (eBioscience), according to manufacturer's instructions. Cells were subsequently stained with fluorochrome-conjugated antibodies for intracellular cytokines. The following combinations were used: IFN-γ-PE-CY7 (BD), TNF-α-APC (eBioscience). […] Stained cells were analyzed using a BD FACSCanto II flow cytometer and further analysis was performed with BD FacsDiva Software.

[3] = system: cells from spleen and draining lymph nodes; assay: IFNγ-Elispot of spleen and dLN cells from DNFB-treated mice, stimulated ex vivo with peptide (Example 4); format: cell-based, C56BL/6 mice; conditions: not with control, 5 μg/ml peptide ex vivo
Procedure: A solution of 0.15% 2,4-dinitrofluorobenzene (DNFB; an allergen) in 1:4 olive oil/ace-tone (OOA) (or just OOA as a control) was painted on back of both ears of C56BL/6 mice for 3 consecutive days (days 0-2). On day 5 the mice were sacrificed and a single cell solution of the removed spleen and draining lymph nodes (dLNs) was made for further analysis by IFNγ-Elispot.
8-9×10^5 cells/well were stimulated ex vivo in Elispot plates with 5 μg/ml mPD-L1long1 (mLong1 from Example 3) or mPD-L1short (a part of the mLong1 peptide having the sequence […] (SEQ ID NO: 101)) for 18-20 hours. Spot count for the peptide stimulated wells was subtracted the background (spot count of wells with no peptide stimulation).
(§2) • Following sacrifice of mice, spleen (and draining lymph nodes (dLNs)) were removed. • Spleen and dLNs was smashed through a […] cell strainer into a 50 ml tube with media (RPMI+10% FCS+1% pen/strep) and washed for at 300 G for 5 minutes, repeated for dLNs. Splenocytes was lysed with RBC lysis buffer for 1 min and washed in media twice. • Cells were counted and transferred to IFNγ Ab-coated Elispot plates in cell number of 9×10^5 cells/well. Coating antibody: Anti-mouse IFN-g mAb AN18 (Mabtech cat no. 3321-3-1000). • Stimulatory peptides were added to designated wells in concentrations of 5 μg/ml. Control wells were not stimulated with peptide. • Elispot plates were developed after 18-20 hours. • Detection antibody Anti-mouse IFN-g mAb R4-6A2-Biotin (Mabtech cat no. 3321-6-1000). Avidin-enzyme conjugate (AP-Avidin; Calbiochem/Invitrogen Life Technologies) and enzyme substrate, NBT/BCIP (Invitrogen Life Technologies) used for visualization. • Spot count for peptide-stimulated wells was always subtracted the corresponding wells without peptide stimulation (the background) • Negative values were sat to zero.

PD-L1-specific T cells = assay: Vaccination of mice with mPD-L1long1, IFNγ-Elispot (Example 5); format: in vivo, C56BL/6 mice
Procedure: C56BL/6 mice were vaccinated subcutaneously (s.c) on the lower back with 100 μg mPD-L1long1 (mLong1 from Example 3) with or without Montanide as an adjuvant (only Montanide as a control) at day 0. On day 7 the mice were sacrificed and a single cell solution of the removed spleen was made for further analysis by IFNγ-Elispot.
9×10^5 splenocytes/well were stimulated ex vivo in Elispot plates with 5 μg/ml mPD-L1long1 or mPD-L1short for 18-20 hours. Spot count for the peptide stimulated wells was subtracted the background (spot count of wells with no peptide stimulation).
as §2

splenocytes = assay: IFNγ-Elispot of splenocytes from IFNγ-injected mice, stimulated ex vivo with mPDL1 peptides (Example 3); format: cell-based, C56BL/6 mice; conditions: splenocytes after prior IFNγ injection; 5 μg/ml peptide ex vivo, 18-20 hours
Procedure: C56BL/6 mice were injected with 1 μg IFNγ in 200 μl PBS i.p (or no injection for control) two days apart (day 0+2) to simulate inflammation. On day 5 the mice were sacrificed and a single cell solution of the removed spleen was made for further analysis by IFNγ-Elispot.
9×10^5 splenocytes/well were stimulated ex vivo in Elispot plates with 5 μg/ml peptides from murine (m)PDL1 for 18-20 hours. Spot count for the peptide stimulated wells was subtracted the background (spot count of wells with no peptide stimulation).
as §2, with “Avidin-enzyme conjugate (AP-Avidin; Calbiochem/Invitrogen Life Technologies) and enzyme substrate, NBT/BCIP (Invitrogen Life Technologies) used for visualization. • Spot count for peptide-stimulated wells was always subtracted the corresponding wells without peptide stimulation (the background) • Negative values were sat to zero.” left out

[4] = system: tumor-infiltrating lymphocytes from 7 melanoma patients; assay: IFNγ ELISPOT on tumor-infiltrating lymphocytes (Example 2); format: cell-based, human
Text: as §1

[5] = PBMCs before vaccination (baseline)
[6] = peptide-vaccinated mice (100 μg s.c.) compared to adjuvant alone, day 7

Arg-Thr-His-Leu-Val-Ile-Leu-Gly-Ala-Ile-Leu-Leu-Cys-Leu-Gly-Val-Ala-Leu-Thr-Phe-Ile-Phe-Arg-Leu-Arg-Lys-Gly-Arg-NH2 (RTHLVILGAILLCLGVALTFIFRLRKGR-NH2) [IO104.1-NH2]
reactivity of PDL111-specific CD8 T cells, ELISPOT [1]: able to react

Arg-Thr-His-Leu-Val-Ile-Leu-Gly-Ala-Ile-Leu-Leu-Cys-Leu-Gly-Val-Ala-Leu-Thr-Phe-Ile-Phe-Arg-Leu-Arg-Lys-Gly-Arg-OH (RTHLVILGAILLCLGVALTFIFRLRKGR-OH) [IO104.1-OH]
reactivity of PDL111-specific CD8 T cells, ELISPOT [1]: able to react

FMTYWHLLNAFTVTVPKDL (listed as Homo sapiens) [PDLong1]
CD4+ T cell reactivity toward DCvacc increased by co-stimulation (donors) ([2]; PBMCs after four vaccinations): all donors | CD8+ T cell reactivity toward DCvacc increased by co-stimulation (donors) ([2]; PBMCs after four vaccinations): five out of eight donors | CD4+ T cell reactivity toward DCvacc increased by co-stimulation (donors) [2, 5]: six out of eight donors | CD8+ T cell reactivity toward DCvacc increased by co-stimulation (donors) [2, 5]: seven out of eight donors | CD4+ T cells reacting against DCvacc compared to control peptide ([2]; all cultures, P=0.02): significantly greater extent | CD8+ T cells reacting against DCvacc compared to control peptide ([2]; all cultures, P=0.05): significantly greater extent | number of PBMCs that showed reactivity against DCvacc ([2]; cocultured with peptide compared to the control HIV epitope): increase

GIIFTACCHL (listed as Mus musculus) [mPD-L1short]
recognition by dLNs, IFNγ-Elispot [3]: recognized | recognition by splenocytes, IFNγ-Elispot [3]: recognized

MRIFAGIIFTACCHLLRA (listed as Mus musculus) [mLong1]
recognition by dLNs, IFNγ-Elispot [3]: recognized | recognition by splenocytes, IFNγ-Elispot [3]: recognized | PD-L1-specific T cell response in the draining lymph nodes (DLNs) (PD-L1-specific T cells; [6]): strong | PD-L1-specific T cell response in the spleens (PD-L1-specific T cells; [6]): strong | PD-L1-specific response by IFNγ Elispot, ex vivo stimulation with mPD-L1long (PD-L1-specific T cells; vaccinated mice): increased | PD-L1-specific response by IFNγ Elispot, ex vivo stimulation with mPD-L1 short (PD-L1-specific T cells; vaccinated mice): increased | recognition by T cells, IFNγ-Elispot (splenocytes): most positive results

RTHLVILGAILLCLGVALTFIFRLRKGR (not fully specified; listed as Homo sapiens) [IO104.1, positions 238 to 265 of hPD-L1; C terminal acid or amide form]
T cell response, IFNγ ELISPOT (patients responding) [4]: three of the patients

WVLLGSILLFLIVVSTVLLFLRKQV (listed as Mus musculus) [mLong3]
recognition by T cells, IFNγ-Elispot (splenocytes): most positive results
